In patent publication US10112939B2, “Tied-back benzamide derivatives as potent rock inhibitors” (Bristol-Myers Squibb Company, priority 2014, dated 2018):

biological target: ROCK2 (Homo sapiens (Human), UniProt O75116); assay: ROCK assay (peptide substrate phosphorylation, LABCHIP 3000 Reader); format: biochemical; settings: 5 μM ATP, 1.5 μM peptide substrate
Protocol: Compounds were dissolved in DMSO so that the final concentration of DMSO was <2%, and the reaction was initiated with Rho kinase variants. After incubation, the reaction was terminated by the addition of EDTA and the phosphorylated and non-phosphorylated peptides separated using a LABCHIP® 3000 Reader (Caliper Life Sciences). […] Compounds were tested in dose-response format, and the inhibition of kinase activity was calculated at each concentration of compound.

Sequence of ROCK2 (O75116 whole entry, species assumed): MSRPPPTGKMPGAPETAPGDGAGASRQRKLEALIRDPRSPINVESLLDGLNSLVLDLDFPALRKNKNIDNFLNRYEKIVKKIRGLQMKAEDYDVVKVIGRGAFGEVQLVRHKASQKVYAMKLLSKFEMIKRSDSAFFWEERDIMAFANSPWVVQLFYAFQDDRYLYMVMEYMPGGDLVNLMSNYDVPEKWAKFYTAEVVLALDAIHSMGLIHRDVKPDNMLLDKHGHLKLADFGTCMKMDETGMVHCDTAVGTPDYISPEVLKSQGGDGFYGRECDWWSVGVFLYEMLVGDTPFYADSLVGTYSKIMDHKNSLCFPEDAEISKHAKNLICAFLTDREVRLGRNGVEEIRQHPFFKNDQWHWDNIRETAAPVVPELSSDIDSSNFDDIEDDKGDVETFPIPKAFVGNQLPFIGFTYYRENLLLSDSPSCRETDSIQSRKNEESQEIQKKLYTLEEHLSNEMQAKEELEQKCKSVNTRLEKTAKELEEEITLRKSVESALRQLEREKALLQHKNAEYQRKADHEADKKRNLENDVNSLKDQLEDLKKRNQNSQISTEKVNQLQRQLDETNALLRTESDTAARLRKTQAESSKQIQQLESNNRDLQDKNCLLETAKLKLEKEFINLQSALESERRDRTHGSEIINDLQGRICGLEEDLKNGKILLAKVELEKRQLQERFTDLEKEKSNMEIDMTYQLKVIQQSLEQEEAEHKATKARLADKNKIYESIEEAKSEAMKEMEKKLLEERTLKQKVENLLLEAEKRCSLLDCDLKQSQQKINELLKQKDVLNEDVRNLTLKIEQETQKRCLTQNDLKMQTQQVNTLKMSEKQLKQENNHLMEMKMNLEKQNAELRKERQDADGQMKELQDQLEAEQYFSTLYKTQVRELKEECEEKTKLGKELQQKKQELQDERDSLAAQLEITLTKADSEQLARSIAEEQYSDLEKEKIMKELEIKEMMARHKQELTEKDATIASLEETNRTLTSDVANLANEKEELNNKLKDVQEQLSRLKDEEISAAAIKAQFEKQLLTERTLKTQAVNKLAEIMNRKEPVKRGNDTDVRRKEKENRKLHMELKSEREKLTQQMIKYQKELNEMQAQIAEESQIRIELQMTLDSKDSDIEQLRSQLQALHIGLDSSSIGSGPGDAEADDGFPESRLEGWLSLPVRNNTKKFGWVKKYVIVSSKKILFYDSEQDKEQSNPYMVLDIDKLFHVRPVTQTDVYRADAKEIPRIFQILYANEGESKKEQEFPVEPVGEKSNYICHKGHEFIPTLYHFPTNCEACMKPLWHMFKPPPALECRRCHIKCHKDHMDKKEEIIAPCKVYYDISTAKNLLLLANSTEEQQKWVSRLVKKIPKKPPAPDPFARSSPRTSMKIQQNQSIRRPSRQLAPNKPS

Compound	IC50 [nM]
COc1cc(C(=O)N[C@@H]2CNC[C@H]2c2ccccc2)ccc1-c1cn[nH]c1 (racemic) [Example 70, trans-(±)-3-Methoxy-N-(4-phenylpyrrolidin-3-yl)-4-(1H-pyrazol-4-yl)benzamide]	1.28
COc1cc(C(=O)N2CCC(c3ccccc3)C2)ccc1-c1cn[nH]c1 (centres unmarked) [Example 2, 4-[2-methoxy-4-(3-phenyl-pyrrolidine-1-carbonyl)phenyl]-1H-pyrazole]	355
COc1cc(C(=O)N2CCC[C@H]2CO)ccc1-c1cn[nH]c1 [Example 3, [(2S)-1-[3-methoxy-4-(1H-pyrazol-4-yl)benzoyl]pyrrolidin-2-yl]methanol]	1340
COc1cc(C(=O)NC2CCc3ccccc32)ccc1-c1cn[nH]c1 (centres unmarked) [Example 5, N-(2,3-dihydro-1H-inden-1-yl)-3-methoxy-4-(1H-pyrazol-4-yl)benzamide]	32.2
COc1cc(C(=O)N2CCCC2c2ccccc2OC)ccc1-c1cn[nH]c1 (centres unmarked) [Example 6, 4-{2-methoxy-4-[2-(2-methoxyphenyl)pyrrolidine-1-carbonyl]phenyl}-1H-pyrazole]	511
COc1cc(C(=O)N2CCCC(c3ccccc3)C2)ccc1-c1cn[nH]c1 (centres unmarked) [Example 7, 1-[3-methoxy-4-(1H-pyrazol-4-yl)benzoyl]-3-phenylpiperidine]	1430
COc1cc(C(=O)N2CCCCC2c2ccccc2F)ccc1-c1cn[nH]c1 (centres unmarked) [Example 8, 2-(2-fluorophenyl)-1-[3-methoxy-4-(1H-pyrazol-4-yl)benzoyl] piperidine]	85.8
COc1cc(C(=O)N2CCc3ccccc32)ccc1-c1cn[nH]c1 [Example 13, 1-[3-methoxy-4-(1H-pyrazol-4-yl)benzoyl]-2,3-dihydro-1H-indole]	800
COc1cc(C(=O)N2CCCC2Cc2ccccc2)ccc1-c1cn[nH]c1 (centres unmarked) [Example 14, 4-[4(2-benzyl-pyrrolidine-1-carbonyl)-2-methoxy-phenyl]-1H-pyrazole]	183
COc1cc(C(=O)N2CCCC2c2ccc(C(F)(F)F)cc2)ccc1-c1cn[nH]c1 (centres unmarked) [Example 22, 4-(2-methoxy-4-{2-[4-(trifluoromethyl)phenyl]pyrrolidine-1-carbonyl}phenyl)-1H-pyrazole]	125
COc1cc(C(=O)N2CCC[C@@H]2C(=O)OC(C)(C)C)ccc1-c1cn[nH]c1 [Example 24, tert-butyl (2R)-1-[3-methoxy-4-(1H-pyrazol-4-yl)benzoyl] pyrrolidine-2-carboxylate]	1100
COc1cc(C(=O)N2CCCC2c2ccc3c(c2)OCO3)ccc1-c1cn[nH]c1 (centres unmarked) [Example 30, 4-{4-[2-(2H-1,3-benzodioxol-5-yl)pyrrolidine-1-carbonyl]-2-methoxyphenyl}-1H-pyrazole]	75.3
CCNC(=O)c1cccc(C2CCCN2C(=O)c2ccc(-c3cn[nH]c3)c(OC)c2)c1 (centres unmarked) [Example 35, N-Ethyl-3-(1-(3-methoxy-4-(1H-pyrazol-4-yl)benzoyl)pyrrolidin-2-yl)benzamide]	4.89
COc1cc(C(=O)N2CCC[C@@H]2c2cccc(C(=O)NC3CCS(=O)(=O)C3)c2)ccc1-c1cn[nH]c1 (stereo partly drawn) [Example 41, N-(1,1-dioxo-1λ^6-thiolan-3-yl)-3-[(2R)-1-[3-methoxy-4-(1H-pyrazol-4-yl)benzoyl]pyrrolidin-2-yl]benzamide]	5.53
COC(=O)c1cccc([C@H]2CC(OC(C)=O)CN2C(=O)c2ccc(-c3cn[nH]c3)c(OC)c2)c1 (stereo partly drawn) [Example 43, Methyl 3-[(2R)-4-(acetyloxy)-1-[3-methoxy-4-(1H-pyrazol-4-yl)benzoyl]pyrrolidin-2-yl]benzoate]	54.4
COc1cc(C(=O)N2CC(O)C[C@@H]2c2cccc(C(=O)O)c2)ccc1-c1cn[nH]c1 (stereo partly drawn) [Example 44, 3-[(2R)-4-Hydroxy-1-[3-methoxy-4-(1H-pyrazol-4-yl)benzoyl]pyrrolidin-2-yl]benzoic acid]	49.7
CNC(=O)c1cccc([C@H]2CC(O)CN2C(=O)c2ccc(-c3cn[nH]c3)c(OC)c2)c1 (stereo partly drawn) [Example 46, 3-[(2R)-4-hydroxy-1-[3-methoxy-4-(1H-pyrazol-4-yl)benzoyl]pyrrolidin-2-yl]-N-methylbenzamide]	18.2
COc1cc(C(=O)N2CC(O)C[C@@H]2c2cccc(C(=O)NCC(C)(C)O)c2)ccc1-c1cn[nH]c1 (stereo partly drawn) [Example 47, 3-[(2R)-4-hydroxy-1-[3-methoxy-4-(1H-pyrazol-4-yl)benzoyl]pyrrolidin-2-yl]-N-(2-hydroxy-2-methylpropyl)benzamide]	7.29

The remaining lines, values ahead:

IC50 [nM]	Compound
31.8	COc1cccc(C2CCCN2C(=O)c2ccc(-c3cn[nH]c3)c(OC)c2)c1 (centres unmarked) [Example 4, 4-{2-methoxy-4-[2-(3-methoxyphenyl)pyrrolidine-1-carbonyl]phenyl}-1H-pyrazole]
673	COc1cccc(C2CCCCN2C(=O)c2ccc(-c3cn[nH]c3)c(OC)c2)c1 (centres unmarked) [Example 9, 1-[3-methoxy-4-(1H-pyrazol-4-yl)benzoyl]-2-(3-methoxy-phenyl) piperidine]
114	COc1cc(C(=O)N2CCCC2c2ccc(Cl)cc2)ccc1-c1cn[nH]c1 (centres unmarked) [Example 10, 4-{4-[2-(4-chlorophenyl)pyrrolidine-1-carbonyl]-2-methoxyphenyl}-1H-pyrazole]
1630	COc1cccc(C2CCCN2C(=O)c2ccc(-c3cn[nH]c3)c(OC)c2)c1 (centres unmarked) [Example 11, 4-{2-methoxy-4-[2-(3-methoxyphenyl)pyrrolidine-1-carbonyl]phenyl}-1H-pyrazole]
12.6	COc1cccc(C2CCCN2C(=O)c2ccc(-c3cn[nH]c3)c(OC)c2)c1 (centres unmarked) [Example 12, 4-{2-methoxy-4-[2-(3-methoxyphenyl)pyrrolidine-1-carbonyl]phenyl}-1H-pyrazole]
31	COc1cc(C(=O)N2CCCC2c2cccc(Br)c2)ccc1-c1cn[nH]c1 (centres unmarked) [Example 15, 4-{4-[2-(3-bromophenyl)pyrrolidine-1-carbonyl]-2-methoxyphenyl}-1H-pyrazole]
3.57	COc1cc(C(=O)N2CCCC2c2cccc(S(N)(=O)=O)c2)ccc1-c1cn[nH]c1 (centres unmarked) [Example 16, 3-{1-[3-methoxy-4-(1H-pyrazol-4-yl)benzoyl]pyrrolidin-2-yl}benzene-1-sulfonamide]
1280	COc1cc(C(=O)N2CCCC2c2cccc(S(N)(=O)=O)c2)ccc1-c1cn[nH]c1 (centres unmarked) [Example 17, 3-{1-[3-methoxy-4-(1H-pyrazol-4-yl)benzoyl]pyrrolidin-2-yl}benzene-1-sulfonamide]
2.79	COc1cc(C(=O)N2CCCC2c2cccc(S(N)(=O)=O)c2)ccc1-c1cn[nH]c1 (centres unmarked) [Example 18, 3-{1-[3-methoxy-4-(1H-pyrazol-4-yl)benzoyl]pyrrolidin-2-yl} benzene-1-sulfonamide]
41.4	COc1cc(C(=O)N2CCCC2c2ccc(F)cc2)ccc1-c1cn[nH]c1 (centres unmarked) [Example 19, 4-{4-[2-(4-fluorophenyl)pyrrolidine-1-carbonyl]-2-methoxyphenyl}-1H-pyrazole]
14.7	COc1cc(C(=O)N2CCCC2c2ccccc2F)ccc1-c1cn[nH]c1 (centres unmarked) [Example 20, 4-{4-[2-(2-fluorophenyl)pyrrolidine-1-carbonyl]-2-methoxyphenyl}-1H-pyrazole]
2.74	COc1cc(C(=O)N2CCCC2c2cccc(O)c2)ccc1-c1cn[nH]c1 (centres unmarked) [Example 21, 3-{1-[3-methoxy-4-(1H-pyrazol-4-yl)benzoyl]pyrrolidin-2-yl}phenol]
215	COc1cc(C(=O)N2CCCC2c2ccc(C)cc2)ccc1-c1cn[nH]c1 (centres unmarked) [Example 23, 4-{2-methoxy-4-[2-(4-methyl-phenyl)pyrrolidine-1-carbonyl]phenyl}-1H-pyrazole]
331	COc1ccc(C2CCCN2C(=O)c2ccc(-c3cn[nH]c3)c(OC)c2)cc1 (centres unmarked) [Example 25, 4-{2-methoxy-4-[2-(4-methoxyphenyl)pyrrolidine-1-carbonyl]phenyl}-1H-pyrazole]
50.5	COc1cc(C(=O)N2CCCC2c2ccccc2)ccc1-c1cn[nH]c1 (centres unmarked) [Example 26, 4-[2-methoxy-4-(2-phenyl-pyrrolidine-1-carbonyl)phenyl]-1H-pyrazole]
61.4	COc1cc(C(=O)N2CCCC2c2cccc(C)c2)ccc1-c1cn[nH]c1 (centres unmarked) [Example 27, 4-{2-methoxy-4-[2-(3-methyl-phenyl)pyrrolidine-1-carbonyl]phenyl}-1H-pyrazole]
15.8	COc1cc(C(=O)N2CCCC2c2ccccc2Cl)ccc1-c1cn[nH]c1 (centres unmarked) [Example 28, 4-{4-[2-(2-chlorophenyl)pyrrolidine-1-carbonyl]-2-methoxyphenyl}-1H-pyrazole]
68.3	COc1cc(C(=O)N2CCCC2c2ccc3ccccc3c2)ccc1-c1cn[nH]c1 (centres unmarked) [Example 29, 4-{2-methoxy-4-[2-(naphthalen-2-yl)pyrrolidine-1-carbonyl]phenyl}-1H-pyrazole]
11.6	COc1cc(C(=O)N2CCC[C@@H]2c2cccc(S(C)(=O)=O)c2)ccc1-c1cn[nH]c1 [Example 31, 4-{4-[(2R)-2-(3-Methanesulfonylphenyl)pyrrolidine-1-carbonyl]-2-methoxyphenyl}-1H-pyrazole]
5.83	COC(=O)c1cccc([C@H]2CCCN2C(=O)c2ccc(-c3cn[nH]c3)c(OC)c2)c1 [Example 32, Methyl 3-[(2R)-1-[3-methoxy-4-(1H-pyrazol-4-yl)benzoyl]pyrrolidin-2-yl]benzoate]
4.52	COc1cc(C(=O)N2CCC[C@@H]2c2cccc(C(=O)NCC(C)(C)O)c2)ccc1-c1cn[nH]c1 [Example 39, N-(2-hydroxy-2-methylpropyl)-3-[(2R)-1-[3-methoxy-4-(1H-pyrazol-4-yl)benzoyl]pyrrolidin-2-yl]benzamide]
725	COc1cc(C(=O)N2CCC[C@@H]2c2cccc(C(=O)N(C)C)c2)ccc1-c1cn[nH]c1 [Example 40, 3-[(2R)-1-[3-methoxy-4-(1H-pyrazol-4-yl)benzoyl]pyrrolidin-2-yl]-N,N-dimethylbenzamide]
4.59	COc1cc(C(=O)N2CCC[C@@H]2c2cccc(C(=O)NC3CC3)c2)ccc1-c1cn[nH]c1 [Example 42, N-cyclopropyl-3-[(2R)-1-[3-methoxy-4-(1H-pyrazol-4-yl)benzoyl]pyrrolidin-2-yl]benzamide]
